Among the data in ChEMBL document CHEMBL3603809, “New Frontiers in Selective Human MAO-B Inhibitors” (J Med Chem, 2015) are Ki and Ratio Ki values, retold here.

For assay [1], the target named is T1, Amine oxidase [flavin-containing] B (Homo sapiens, UniProt P27338).
T1 sequence (P27338 whole entry): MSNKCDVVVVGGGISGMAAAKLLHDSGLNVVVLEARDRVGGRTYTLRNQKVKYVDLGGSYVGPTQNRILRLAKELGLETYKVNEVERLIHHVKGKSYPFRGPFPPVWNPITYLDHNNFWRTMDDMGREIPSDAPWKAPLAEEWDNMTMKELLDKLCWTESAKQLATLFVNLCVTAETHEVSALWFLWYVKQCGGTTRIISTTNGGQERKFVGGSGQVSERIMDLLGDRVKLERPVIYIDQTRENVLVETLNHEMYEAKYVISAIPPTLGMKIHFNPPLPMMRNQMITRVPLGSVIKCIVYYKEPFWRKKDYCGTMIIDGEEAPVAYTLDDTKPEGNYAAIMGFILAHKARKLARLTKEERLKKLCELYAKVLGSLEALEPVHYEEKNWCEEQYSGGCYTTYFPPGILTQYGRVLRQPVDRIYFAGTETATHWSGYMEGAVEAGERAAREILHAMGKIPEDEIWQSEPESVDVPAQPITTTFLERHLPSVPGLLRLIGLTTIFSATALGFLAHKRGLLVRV
Briefly: Inhibition of human MAOB.

The target of assay [2] is T1, Amine oxidase [flavin-containing] B. Nature of the assay: Competitive inhibition of human liver MAOB expressed in Pichia pastoris.
For a further assay, the species on record is Homo sapiens. Briefly: Selectivity index, ratio of Ki for human MAOA to Ki for human MAOB.
Assay [3] is described as follows: Inhibition of baboon MAOB. Set-up: species or system Papio.

Take `Cn1c(=O)c2c(nc(OCc3ccc(Br)cc3)n2C)n(C)c1=O`: the Ki in assay [1] is 62 nM.

In the case of `Cn1c(=O)c2c(nc(OCc3cccc(Br)c3)n2C)n(C)c1=O`, the Ki in assay [1] came out at 68 nM. The Ki values of the last two compounds are within 1.5-fold of each other.

The compound `C#CN(C)Cc1ccc(C(=O)NC2CC(C)(C)N([O])C(C)(C)C2)cc1` gave a Ki in assay [1] of 22000 nM. In assay [2], `C(=C\Cc1ccccc1)/Cc1ccccc1` had an inhibition constant Ki of 35 nM. This lies in the double-digit nanomolar range. Regarding `C#CCN(C)c1nc2nc(CCC3CCN(Cc4ccccc4)CC3)ccc2c(-c2ccccc2)c1C#N`, the Ratio Ki in the assay listed under Homo sapiens was above 3. Moreover, the Ki in assay [1] turned out to be 32 nM. In assay [3], `Cn1c(=O)c2c(nc(/C=C/C=C/c3cccc(Br)c3)n2C)n(C)c1=O` gave a Ki of 17 nM. In the case of `CN(C)c1ccc(/N=C/c2ccccn2)cc1`, the Ratio Ki in the assay filed under Homo sapiens stood at 3.
